# Values of other authors as cited in patent US10966421B2, “Method and device for collecting and preserving cells for analysis” (priority 2002, dated 2021).
# Experiments:
# [1] = in vivo
# [2] = in vivo; remark: listed apart in the source
# [3] = in vivo; remark: listed apart in the source
Compound,Dermal Toxicity [1],Inhalation Toxicity [2],LD50 [3]
"O=C(NCO)N(CO)C1(CO)C(=O)NC(=O)N1CO (centres unmarked) [Diazolidinyl urea, diazolidinyl urea]",2000 mg/kg,None,2570 mg/kg
"C=O [Formaldehyde, formaldehyde, reference compound]",270 mg/kg,500 mg/kg,
